Test results taken from patent US5021408A, “Hydrocortisone-17-oxo-21-thioesters, their preparation and their uses as medicaments” (Jouveinal S.A., priority 1983, dated 1991).
Like-named read-outs stand apart in the source and are kept apart here.

Experiments:
[1] = tested on: inflammation of the ear in the mouse; experiment: Local anti-inflammatory activity, croton oil ear inflammation (method derived from Tonelli); assay type: in vivo; conditions: for Anti-inflammatory activity EC50: mouse ear, croton oil, concentration giving 50% reduction in inflammation vs controls; for Anti-inflammatory activity: Activity/ref. 21 act. hydro: relative to hydrocortisone-21-acetate = 1
Method: I.1. Local anti-inflammatory activity
This study was carried out in accordance with a method derived from that of Tonelli (Endocrinology, Vol. 77, page 625, 1965).
The test consists of causing inflammation of the ear in the mouse using a croton oil-based irritating solution.
The addition of a local anti-inflammatory substance to this solution leads to a reduced inflammation action compared with that of the controls, i.e. treated with the irritating solution only.
The results of the study are expressed in EC50, which is the p/v % concentration of the dissolved product able to bring about a 50% reduction in the inflammation compared with that caused in the controls.

[2] = Systemic (thymolytic) activity, thymus weight reduction after oral administration; assay type: in vivo, rat (Wistar); conditions: rat
Method: (§1) Determination of systemic activity side effects
(§2) These effects were evaluated by means of their thymolytic activity.
(§3) The repeated administration of systemic activity products leads to a weakening of the defence systems of the organism. More especially in young animals, this leads to a reduction in the weight of two organs of the reticuloendothelial system, namely the spleen and the thymus, the latter being the most sensitive to this effect.
(§4) This activity was determined by means of a study of the activity of products on the weight reduction of the thymus of animals.
(§5) The product to be studied, suspended in 5% p/v gum arabic were orally administered daily for four consecutive days to young rats of the Wistar strain. Under the same conditions, a control batch of animals received an identical volume of the excipient.
(§6) 96 hours after the first administration, the animals were killed and their thymus removed and immediately weighed.
(§7) The results of the study are expressed in ED50, which corresponds to the daily dose in milligrams able to bring about a 50% thymus weight reduction for 1 kilogram animal weight, compared with the controls (mg/kg^-1 /day^-1).

thymus weight = experiment: as above; assay type: in vivo, rat (Wistar)
Method: as §1, §2, §3, §4, §5, §6, §7

[3] = Dissociation ratio R local anti-inflammatory activity / systemic activity; assay type: in vivo, mouse (ear inflammation) and rat (thymus); conditions: lower value = greater dissociation of activities
Method: The results obtained by this study make it possible to calculate the activity ratio:
local anti-inflammatory activity
The value of this ratio indicates the dissociation of the activities and is inversely proportional to the size of the dissociation, i.e. the lower this value, the greater the dissociation.
This value was calculated on the basis of the expression: [formula]

granuloma = conditions: according to N. Bodor; cited from earlier work
erythema = conditions: reported by O. J. Lorenzetti; cited from earlier work
[4] = young Wistar rats, oral, daily for four consecutive days, 50% thymus weight reduction vs controls, read-out: Systemic activity ED50
[5] = relative to hydrocortisone-21-acetate = 1

| ED50 at 96 h [2, 4] [mg/kg] | Systemic activity: Activity/ref. 21 act. hydro (thymus weight; [5]) | SMILES | Anti-inflammatory activity EC50 [1] [% p/v] | Anti-inflammatory activity: Activity/ref. 21 act. hydro [1] | ED50 at 96 h ([2]; in vivo, po) [mg/kg] | Systemic activity: Activity/ref. 21 act. hydro (thymus weight; rat, in vivo, 5760 min) | R (local anti-inflammatory activity / systemic activity) [3] | ED50 at 96 h ([2]; in vivo, young Wistar rats, oral, daily for four consecutive days, 50% thymus weight reduction vs controls, read-out: Systemic activity ED50) [mg/kg] | activity in the granuloma test (granuloma) | activity in the erythema test compared with the vasoconstriction test (erythema) | systemic activity, times lower than that of prednisolone-21-thioacetate-17-valerate (thymus weight; rat, in vivo, po, 5760 min) [times] |
| --- | --- | --- | --- | --- | --- | --- | --- | --- | --- | --- | --- |
|  |  | CCC(=O)O[C@]1(C(=O)CSC(=O)CC)[C@@H](C)C[C@H]2[C@@H]3CCC4=CC(=O)C=C[C@]4(C)[C@@]3(Cl)[C@@H](O)C[C@@]21C [beclomethasone-21-thiopropionate-17-propionate] | 0.0175 | 17.1 | 19 | 0.74 | 9.21 |  |  |  |  |
| 14 | 1 | CC(=O)OCC(=O)[C@@]1(O)CC[C@H]2[C@@H]3CCC4=CC(=O)CC[C@]4(C)[C@H]3[C@@H](O)C[C@@]21C [hydrocortisone-21-acetate] | 0.30 | 1 |  |  | 214 |  |  |  |  |
|  |  | CC(=O)O[C@]1(C(=O)CSC(=O)CC(C)(C)C)[C@H](C)C[C@H]2[C@@H]3CCC4=CC(=O)C=C[C@]4(C)[C@@]3(F)[C@@H](O)C[C@@]21C [dexamethasone-21-thiotertiobutylacetate-17-acetate] | 0.0092 | 32.6 | 3 | 4.67 | 30.7 |  |  |  |  |
|  |  | CCCC(=O)O[C@]1(C(=O)CSC(=O)CC)CC[C@H]2[C@@H]3CCC4=CC(=O)CC[C@]4(C)[C@H]3[C@@H](O)C[C@@]21C [Example 2, 3,20-dione-11β-hydroxypregn-4-ene-21-thiopropionate-17-butyrate] | 0.021 | 14.3 | > 1450 | < 0.0096 | 0.14 |  |  |  |  |
|  |  | CCCCC(=O)O[C@]1(C(=O)COC(C)=O)CC[C@H]2[C@@H]3CCC4=CC(=O)C=C[C@]4(C)[C@H]3[C@@H](O)C[C@@]21C [Prednisolone-21-acetate-17-valerate, prednisolone-21-acetate-17-valerate] | 0.0018 | 167 | 9 | 1.60 | 2.0 |  |  |  |  |
|  |  | CCC(=O)O[C@]1(C(=O)CSC(=O)CC)[C@@H](C)C[C@H]2[C@@H]3CCC4=CC(=O)C=C[C@]4(C)[C@@]3(F)[C@@H](O)C[C@@]21C [betamethasone-21-thiopropionate-17-propionate] | 0.0013 | 231 | 3 | 4.66 | 4.33 |  |  |  |  |
|  |  | CCCCC(=O)O[C@]1(C(=O)CSC(C)=O)CC[C@H]2[C@@H]3C[C@H](C)C4=CC(=O)C=C[C@]4(C)[C@H]3[C@@H](O)C[C@@]21C [6-α-methylprednisolone-21-thioacetate-17-valerate] | 0.5 | 0.6 | 43 | 0.325 | 116.3 |  |  |  |  |
| 7.2 | 1.95 | CCCC(=O)O[C@]1(C(=O)COC(=O)CC)CC[C@H]2[C@@H]3CCC4=CC(=O)CC[C@]4(C)[C@H]3[C@@H](O)C[C@@]21C [Hydrocortisone-21-propionate-17-butyrate, hydrocortisone-21-propionate-17-butyrate] | 0.0047 | 63.8 |  |  | 6.52 |  |  |  |  |
|  |  | CCC(=O)O[C@]1(C(=O)CSC(C)=O)[C@@H](C)C[C@H]2[C@@H]3CCC4=CC(=O)C=C[C@]4(C)[C@@]3(F)[C@@H](O)C[C@@]21C [betamethasone-21-thioacetate-17-propionate] | 0.010 | 30.0 | 2.5 | 5.60 | 40.0 |  |  |  |  |
|  |  | CCCC(=O)O[C@]1(C(=O)CO)CC[C@H]2[C@@H]3CCC4=CC(=O)CC[C@]4(C)[C@H]3[C@@H](O)C[C@@]21C [hydrocortisone-17-butyrate] |  |  |  |  |  |  | only has a limited activity in the granuloma test | good similarity of activity compared with the vasoconstriction test |  |
|  |  | CCCC(=O)O[C@]1(C(=O)CSC(C)=O)CC[C@H]2[C@@H]3CCC4=CC(=O)CC[C@]4(C)[C@H]3[C@@H](O)C[C@@]21C [Example 1, 3,20-dione-11β-hydroxypregn-4-ene-21-thioacetate-17-butyrate] | 0.0082 | 36.6 | 350 | 0.04 | 0.23 |  |  |  | 6 |
|  |  | CCC(=O)SCC(=O)[C@@]1(OC(C)=O)[C@@H](C)C[C@H]2[C@@H]3CCC4=CC(=O)C=C[C@]4(C)[C@@]3(F)[C@@H](O)C[C@@]21C [betamethasone-21-thiopropionate-17-acetate] | 0.012 | 25.0 | 2.4 | 5.83 | 50.0 |  |  |  |  |
|  |  | CCCCC(=O)O[C@]1(C(=O)CSC(C)=O)CC[C@H]2[C@@H]3CCC4=CC(=O)C=C[C@]4(C)[C@H]3[C@@H](O)C[C@@]21C [Prednisolone-21-thioacetate-17-valerate] | 0.008 | 37.5 | 58 | 0.24 | 1.38 |  |  |  |  |

| SMILES | ED50 at 96 h [2, 4] [mg/kg] | Systemic activity: Activity/ref. 21 act. hydro (thymus weight; [5]) | Anti-inflammatory activity EC50 [1] [% p/v] | Anti-inflammatory activity: Activity/ref. 21 act. hydro [1] | ED50 at 96 h ([2]; in vivo, po) [mg/kg] | Systemic activity: Activity/ref. 21 act. hydro (thymus weight; rat, in vivo, 5760 min) | R (local anti-inflammatory activity / systemic activity) [3] | ED50 at 96 h ([2]; in vivo, young Wistar rats, oral, daily for four consecutive days, 50% thymus weight reduction vs controls, read-out: Systemic activity ED50) [mg/kg] | activity in the granuloma test (granuloma) | activity in the erythema test compared with the vasoconstriction test (erythema) | systemic activity, times lower than that of prednisolone-21-thioacetate-17-valerate (thymus weight; rat, in vivo, po, 5760 min) [times] |
| --- | --- | --- | --- | --- | --- | --- | --- | --- | --- | --- | --- |
| CC(C)(C)C(=O)SCC(=O)[C@@]1(O)CC[C@H]2[C@@H]3CCC4=CC(=O)CC[C@]4(C)[C@H]3[C@@H](O)C[C@@]21C [Hydrocortisone-21-thiopivalate, hydrocortisone-21-thiopivalate] |  | 0.0038 | 2.5 | 0.12 |  |  | 6.90 | 3600 |  |  |  |
